Measured values from patent publication US8686016B2, “Schweinfurthins and uses thereof” (The United States of America, as represented by the …, priority 2009, dated 2014).
“Also recorded” adds a separate entry of the source.

Legend:
MLC phosphorylation = assay: Phospho-myosin light chain immunostaining, MPNST cell lines; type: cell-based, mouse
Procedure: (§1) Cell Morphology Assays and Confocal Microscopy: To assay cytoskeleton morphology, KR158 cells, mouse primary astrocytes, KR158 clones expressing the NF1-GRD constructs, K14553 cells, and A549 were seeded to cover slips and allowed to reattach overnight. Cells were treated for 18 hours with either the indicated concentrations of SA, or the vehicle control DMSO. The cover slips were fixed in 3.7% paraformaldehyde, permeablized in 0.1% Triton-X100, and stained with Alexa Fluor 488-phalloidin (Invitrogen, Carlsbad, Calif., USA) to detect actin and cells were mounted in Prolong Antifade containing DAPI (Invitrogen) to stain nuclei. The cells were imaged on a LSM510 confocal microscope (Carl Zeiss Inc., Jena, Germany). For phospho-myosin light chain 2 (MLC) detection, cells were seeded to coverslips as described above. Cells were serum starved in 0.5% FBS and SA or DMSO vehicle control for 18 hours, and then pulsed with 10 ng/mL EGF (Invitrogen) for 5 min. […] Actin structures were monitored continuously over a 16 hr period using confocal microscopy equipped with a growth chamber (37° C., humidified atmosphere and 5% CO2). […]

[1] = test system: phosphorylation of Ser 19 on myosin light chain 2 (MLC2); assay: Phospho-myosin light chain 2 immunostaining, KR158; type: cell-based, mouse; settings: KR158 cells treated with SA and EGF
Procedure: as §1

KR158 cells = assay: MultiTox-Fluor Multiplex Cytotoxicity Assay; type: cell-based, mouse; settings: 48 hrs continuous treatment
Procedure: Cytotoxicity Assay: The MultiTox-Fluor Multiplex Cytotoxicity Assay (Promega, Madison, Wis., USA) was used according to manufacturer instructions. Briefly, KR158 cells were harvested and seeded 2,500 cells/well in a black walled 96-well plate (Corning, Lowell, Mass., USA). Cells were treated with SA or DMSO control at the indicated concentrations continuously for 48 hours followed by addition of the fluorescent substrates from the assay kit. The GF-AFC Substrate enters live cells where it is cleaved by the live-cell protease to release AFC. The bis-AAF-R110 substrate cannot enter live cells but instead is be cleaved by the dead-cell protease activity to release R110.

NCI 60-cell line panel = assay: NCI 60 cell line assay; type: cell-based, human
[2] = test system: empty vector transduced KR158 cells; assay: Cell morphology / actin confocal microscopy, empty vector KR158; type: cell-based, mouse
Procedure: Constructs and Transfections: NF1-GRD retroviral constructs were obtained from Indiana University. Cells transduced with the NF1-GRD construct or PMSCV empty vector control as previously described (Hiatt et al., J. Biol. Chem., 2001, 276:7240-5) were maintained in 1 μg/mL puromycin (Sigma).
as §1, with “above.” for “above. Cells were serum starved in 0.5% FBS and SA or DMSO vehicle control for 18 hours, and then pulsed with 10 ng/mL EGF (Invitrogen) for 5 min.”

[3] = test system: MPNST cell lines derived from the NPcis mouse; assay: Cell morphology / actin, MPNST cell lines; type: cell-based
Procedure: as §1

primary astrocytes = assay: Cell morphology / actin confocal microscopy, primary astrocytes; type: cell-based, mouse; settings: 18 hours treatment
Procedure: as §1

A549 cells = assay: Cell morphology / actin confocal microscopy, A549; type: cell-based, human; settings: 18 hours treatment
Procedure: as §1

Rho = Rho GTPase pull-down assay; type: cell-based, mouse; settings: EGF pulsed KR158 cells, 12 hrs and 18 hrs
Procedure: Rho GTPase Pull-Down Assay: The Rho pull down assay was obtained from Upstate Biolotech/Millipore (Billerica, Mass., USA, Cat#17-294). KR158 cells were harvested at approximately 80% confluency and seeded at 5×10^5 cells per well in a 6-well plate. After overnight recovery, cells were serum starved in 0.5% FBS for 18 hrs. Cells were then treated with 10 ng/mL EGF either in the presence or the absence of the indicted concentrations of SA for up to 18 hours. At the indicated time points, the cells were lysed according to the manufacturer's protocols. Proteins pulled down by the Rho-GTP binding beads were eluted by SDS, fractionated on a 10% SDS-PAGE gel, and transferred to a nitrocellulose membrane. Pre-pull-down lysates were run in parallel to determine total levels of Rho in each sample. The membrane was probed by an anti Rho antibody.

[4] = test system: SF-295 human glioma cells; assay: Clonogenic assay, SF-295; type: cell-based; settings: 18 hrs treatment, colonies after one week
Procedure: Clonogenic Assays: Monolayers of cells were treated for 18 hrs with SA, and then harvested, counted, and seeded to 35 mm dishes at a density of 1000 cells per dish. After one week, macroscopic colonies were stained with crystal violet (Sigma, St. Louis, Mo., USA) and counted.

In the case of `CC(C)=CCC/C(C)=C/Cc1c(O)cc(/C=C/c2cc(O)c3c(c2)C[C@@H]2C(C)(C)[C@H](O)[C@H](O)C[C@@]2(C)O3)cc1O` [SA, Schweinfurthin A], the MLC phosphorylation (MLC phosphorylation) is reported as “reduced MLC phosphorylation”, the “MLC phosphorylation (Ser 19)” value [1] is reported as “dose dependent decrease of MLC phosphorylation” and the “cell killing (dead-cell protease activity)” value (KR158 cells) is reported as “dose dependent increase of dead-cell protease activity; also recorded: dose dependent increase in cell killing”. For the same compound, the selectivity (NCI 60-cell line panel) was 1000 fold, the differential cytotoxicity (NCI 60-cell line panel; NCI 60-cell line panel) was “significant differential cytotoxicity” and the F-actin structures [2] was “same reorganization of F-actin structures”. The actin cytoskeleton [3] was “loss of stress fibers”, the “actin organization, phalloidin staining” value (primary astrocytes) was “no visible changes in actin organization” and the “actin organization, phalloidin staining” value (A549 cells) was “no visible changes in actin organization”. For the same compound, the Rho activity (Rho) was “marked inhibition of Rho activity” and the colony growth [4] was “inhibited; also recorded: dramatically restricted”.
